According to PubChem BioAssay AID328 (DTP/NCI, 2004):
“And” between values parts separate entries of the source, which are not always exact repeats. Equal values may be shown once. Toxic doses and inconclusive results are not listed. Non-standard residues stand in square brackets, D forms with d. Residues, ends and D or L forms follow the SMILES beside them. ξ: configuration not given here. ξPhe(4-N(CH2CH2Cl)2) = NC(Cc1ccc(N(CCCl)CCCl)cc1)C(=O)O

Test system: BDF1 mice, P388 leukemia ip, median survival T/C
Assay: NCI In Vivo Anticancer Drug Screen. Data for tumor model P388 Leukemia (intraperitoneal) in B6D2F1 (BDF1) mice
Details: endpoint: median survival time, higher = longer survival
Procedure, shortened: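 Mice carrying the transplantable tumour receive compound or vehicle. Survival is followed in each arm, and the treated measure is divided by the vehicle measure.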

[1] = dose: 50.0 mg/kg/injection, schedule: Q01DX009 (ip), vehicle: saline with Tween-80
[2] = dose: 100.0 mg/kg/injection, schedule: Q01DX009 (ip), vehicle: saline with Tween-80
[3] = dose: 200.0 mg/kg/injection, schedule: Q01DX009 (ip), vehicle: saline with Tween-80
[4] = dose: 25.0 mg/kg/injection, schedule: Q01DX009 (ip), vehicle: saline
[5] = dose: 50.0 mg/kg/injection, schedule: Q01DX009 (ip), vehicle: saline
[6] = dose: 50.0 mg/kg/injection, schedule: Q04DX003 (ip), vehicle: saline
[7] = dose: 100.0 mg/kg/injection, schedule: Q01DX009 (ip), vehicle: saline
[8] = dose: 100.0 mg/kg/injection, schedule: Q04DX003 (ip), vehicle: saline
[9] = dose: 200.0 mg/kg/injection, schedule: Q01DX009 (ip), vehicle: saline
[10] = dose: 200.0 mg/kg/injection, schedule: Q04DX003 (ip), vehicle: saline
[11] = dose: 12.5 mg/kg/injection, schedule: Q01DX009 (ip), vehicle: saline
[12] = dose: 400.0 mg/kg/injection, schedule: Q04DX003 (ip), vehicle: saline
[13] = dose: 100.0 mg/kg/injection, schedule: Q04DX003 (ip), vehicle: saline with Tween-80
[14] = dose: 200.0 mg/kg/injection, schedule: Q04DX003 (ip), vehicle: saline with Tween-80
[15] = dose: 400.0 mg/kg/injection, schedule: Q04DX003 (ip), vehicle: saline with Tween-80

ClCc1ccc2ccccc2n1
T/C [1]: 113 % of control | T/C [2]: 122 % of control | T/C (dose: 132.0 mg/kg/injection, schedule: Q01DX009 (ip), vehicle: saline with Tween-80): 113 % of control | T/C [3]: 122 % of control | T/C (dose: 300.0 mg/kg/injection, schedule: Q01DX009 (ip), vehicle: saline with Tween-80): 104 % of control

S=C1NC2=S(N=C(Nc3ccccc3)N2c2ccccc2)S1 (stereo not drawn)
T/C [1]: 94 % of control | T/C [2]: 96 % of control | T/C [3]: 93 % of control

C=C1C(=O)OC2/C=C(\C)C3(O)C=CC(C)(CC(OC(=O)C(C)C)C12)O3 (stereo not drawn)
T/C (dose: 10.0 mg/kg/injection, schedule: Q01DX009 (ip), vehicle: saline): 103 % of control | T/C (dose: 12.5 mg/kg/injection, schedule: Q01DX009 (ip), vehicle: other): 161 % of control | T/C (dose: 25.0 mg/kg/injection, schedule: Q01DX009 (ip), vehicle: other): 155 % of control | T/C (dose: 40.0 mg/kg/injection, schedule: Q01DX009 (ip), vehicle: saline): 100 % of control | T/C (dose: 50.0 mg/kg/injection, schedule: Q01DX009 (ip), vehicle: other): 161 % of control

CCNC1(c2ccc(Cl)cc2)CCCCC1=O (stereo not drawn)
T/C [4]: 100 % of control | T/C [5]: 95 % of control and 100 % of control | T/C [6]: 100 % of control | T/C [7]: 86 % of control | T/C [8]: 95 % of control

CCCCC[C@H](O)/C=C/[C@@H]1[C@@H](C/C=C\CCCC(=O)O)[C@@H](O)C[C@H]1O
T/C (dose: 0.25 mg/kg/injection, schedule: Q#A X020 (ip), vehicle: saline): 110 % of control | T/C (dose: 0.5 mg/kg/injection, schedule: Q#A X020 (ip), vehicle: saline): 101 % of control | T/C (dose: 1.0 mg/kg/injection, schedule: Q#A X020 (ip), vehicle: saline): 100 % of control | T/C (dose: 2.5 mg/kg/injection, schedule: Q04DX003 (ip), vehicle: saline with Tween-80): 94 % of control | T/C (dose: 5.0 mg/kg/injection, schedule: Q04DX002 (ip), vehicle: saline): 97 % of control | T/C (dose: 10.0 mg/kg/injection, schedule: Q04DX003 (ip), vehicle: saline with Tween-80): 105 % of control | T/C (dose: 20.0 mg/kg/injection, schedule: Q04DX002 (ip), vehicle: saline): 105 % of control | T/C (dose: 40.0 mg/kg/injection, schedule: Q04DX002 (ip), vehicle: saline): 105 % of control | T/C (dose: 80.0 mg/kg/injection, schedule: Q04DX002 (ip), vehicle: saline): 97 % of control

CC1CC[N-]CC1.CC1CC[N-]CC1.[Br][Pt+2]([Br])([Br])[Br]
T/C (dose: 1.56 mg/kg/injection, schedule: Q01DX009 (ip), vehicle: saline with Tween-80): 100 % of control | T/C (dose: 3.12 mg/kg/injection, schedule: Q01DX009 (ip), vehicle: saline with Tween-80): 94 % of control | T/C (dose: 3.12 mg/kg/injection, schedule: Q04DX003 (ip), vehicle: saline with Tween-80): 97 % of control | T/C (dose: 6.25 mg/kg/injection, schedule: Q01DX009 (ip), vehicle: saline with Tween-80): 107 % of control | T/C (dose: 6.25 mg/kg/injection, schedule: Q04DX003 (ip), vehicle: saline with Tween-80): 91 % of control and 108 % of control | T/C (dose: 12.5 mg/kg/injection, schedule: Q04DX003 (ip), vehicle: saline with Tween-80): 100 % of control | T/C (dose: 25.0 mg/kg/injection, schedule: Q04DX003 (ip), vehicle: saline with Tween-80): 117 % of control | T/C (dose: 50.0 mg/kg/injection, schedule: Q04DX003 (ip), vehicle: saline with Tween-80): 91 % of control and 121 % of control

COc1cc(-n2c(CCc3nc(-c4ccc(Cl)cc4)no3)n[nH]c2=S)c(OC)cc1Cl
T/C [1]: 100 % of control | T/C [2]: 103 % of control | T/C [3]: 110 % of control

C/C(=C\Br)CO
T/C [6]: 90 % of control | T/C [7]: 105 % of control | T/C [8]: 105 % of control | T/C [9]: 95 % of control | T/C [10]: 90 % of control

NC(CO)C(=O)NC(CCC(=O)O)C(=O)NC(CO)C(=O)NC(CCC(=O)O)C(=O)NC(Cc1ccc(N(CCCl)CCCl)cc1)C(=O)O (stereo not drawn) (H-SESE[ξPhe(4-N(CH2CH2Cl)2)]-OH; configuration not given here)
T/C (dose: 5.0 mg/kg/injection, schedule: Q04DX003 (ip), vehicle: water): 100 % of control | T/C (dose: 10.0 mg/kg/injection, schedule: Q04DX003 (ip), vehicle: water): 98 % of control | T/C (dose: 20.0 mg/kg/injection, schedule: Q04DX003 (ip), vehicle: water): 97 % of control | T/C (dose: 40.0 mg/kg/injection, schedule: Q04DX003 (ip), vehicle: water): 100 % of control

CC1(C)O[C@]2(C)CC[C@@H]1[C@H]1O[C@@H]12
T/C (dose: 50.0 mg/kg/injection, schedule: Q01DX005 (ip), vehicle: saline): 102 % of control | T/C (dose: 100.0 mg/kg/injection, schedule: Q01DX005 (ip), vehicle: saline): 100 % of control | T/C (dose: 200.0 mg/kg/injection, schedule: Q01DX005 (ip), vehicle: saline): 102 % of control

Cc1cc[n+](CCc2ccccc2)cc1
T/C (dose: 6.25 mg/kg/injection, schedule: Q01DX009 (ip), vehicle: saline): 91 % of control | T/C [11]: 87 % of control | T/C (dose: 18.75 mg/kg/injection, schedule: Q01DX010 (ip), vehicle: acetone): 91 % of control | T/C (dose: 37.5 mg/kg/injection, schedule: Q01DX010 (ip), vehicle: acetone): 87 % of control | T/C [5]: 112 % of control | T/C (dose: 75.0 mg/kg/injection, schedule: Q01DX010 (ip), vehicle: acetone): 91 % of control

COc1cc(/C=N\O)nc(-c2ccccn2)c1
T/C [11]: 120 % of control | T/C [4]: 96 % of control and 120 % of control | T/C [5]: 111 % of control and 123 % of control | T/C [7]: 114 % of control

Oc1ccc(Cl)cc1Br
T/C (dose: 25.0 mg/kg/injection, schedule: Q01DX009 (ip), vehicle: saline with Tween-80): 110 % of control | T/C [1]: 115 % of control | T/C [2]: 110 % of control

O=C(/C=C/c1ccc(OCc2ccccc2)cc1)c1ccc(F)cc1
T/C [1]: 89 % of control | T/C [2]: 98 % of control | T/C [3]: 89 % of control

CC(=O)Nc1cc(C)c2ccc(Cl)nc2n1
T/C [8]: 97 % of control | T/C [10]: 92 % of control | T/C [12]: 91 % of control

O=C(Cl)C1CCCCC1
T/C [1]: 100 % of control | T/C [2]: 104 % of control

O=C(OC1C(OC(=O)C(Cl)Cl)C(OC(=O)C(Cl)Cl)C(OC(=O)C(Cl)Cl)C(OC(=O)C(Cl)Cl)C1OC(=O)C(Cl)Cl)C(Cl)Cl (stereo not drawn)
T/C (dose: 37.5 mg/kg/injection, schedule: Q01DX001 (ip), vehicle: saline sonified): 95 % of control | T/C (dose: 75.0 mg/kg/injection, schedule: Q01DX001 (ip), vehicle: saline sonified): 100 % of control | T/C (dose: 150.0 mg/kg/injection, schedule: Q01DX001 (ip), vehicle: saline sonified): 86 % of control

Cc1ccc(NC(=O)CC#N)c(C)c1
T/C [8]: 109 % of control | T/C [10]: 100 % of control | T/C [12]: 92 % of control

CC(=O)N\C(N)=N/N=C\C(C)=N/N=C(\N)NC(C)=O
T/C [1]: 97 % of control | T/C [2]: 100 % of control | T/C [3]: 100 % of control

CCN(CC)Cc1cc(Nc2c3ccc([N+](=O)[O-])cc3nc3ccc(OC)cc23)ccc1O
T/C (dose: 12.5 mg/kg/injection, schedule: Q04DX003 (ip), vehicle: saline): 111 % of control | T/C [4]: 97 % of control | T/C (dose: 25.0 mg/kg/injection, schedule: Q04DX003 (ip), vehicle: saline): 111 % of control | T/C [5]: 104 % of control | T/C [6]: 113 % of control | T/C [7]: 100 % of control | T/C [8]: 113 % of control | T/C [9]: 121 % of control | T/C [10]: 89 % of control | T/C [12]: 104 % of control

c1coc(CNc2ncnc3nc[nH]c23)c1
T/C [2]: 95 % of control | T/C [13]: 91 % of control | T/C [3]: 86 % of control | T/C [14]: 95 % of control | T/C (dose: 400.0 mg/kg/injection, schedule: Q01DX009 (ip), vehicle: saline with Tween-80): 100 % of control | T/C [15]: 86 % of control

O=Cc1ccc(OC(=O)Nc2ccccc2)cc1
T/C [13]: 113 % of control | T/C [14]: 122 % of control | T/C [15]: 86 % of control

COc1cc(C=O)cc(O)c1O
T/C (dose: 100.0 mg/kg/injection, schedule: Q01DX009 (ip), vehicle: saline sonified): 95 % of control | T/C (dose: 176.0 mg/kg/injection, schedule: Q01DX009 (ip), vehicle: saline sonified): 91 % of control | T/C (dose: 200.0 mg/kg/injection, schedule: Q01DX009 (ip), vehicle: saline sonified): 120 % of control | T/C (dose: 264.0 mg/kg/injection, schedule: Q01DX009 (ip), vehicle: saline sonified): 104 % of control
